Reference: patent US20230082989A1, “DEVICES AND METHODS FOR TREATING CANCER AND CARDIAC WASTING” (Nazzano Devices Limited, priority 2020, published 2023)
Like-named read-outs stand apart in the source and are kept apart here. Where no end group is shown, it is not given here.

Experiments:
[1] = system: advanced cancer patients; assay: Echocardiogram (LVEF, LV mass) in advanced cancer patients receiving heart failure drugs, case series; assay type: in vivo, human
Procedure: (§1) In some cases, SGLT2 inhibitors, Dapagliflozin or Empagliflozin can be used for treatment of type 2 diabetes, heart failure, or a combination thereof. Disclosed herein are methods comprising administering these drugs to advanced cancer patients to improve a heart muscle in these patients. We here describe 5 advanced cancer patients, who were treated with either an SGLT2 inhibitor, an ACE inhibitor, a beta-blocker or an Angiotensin receptor blocker, all of which are shown to be effective heart failure therapies.

[2] = system: advanced cancer patients; assay: Interpretation of case reports: protection from heart muscle wasting, NSVT and early death; assay type: in vivo, human
[3] = system: advanced cancer patients; assay: Self-rated health / EQ5D5L index in advanced cancer patients receiving heart failure drugs, case series; assay type: in vivo, human; details: for Self-rated health: 1=very good, 5=very poor; for Symptom status, EQ5D5L Index: 1 best possible, 0 worst possible
Procedure: as §1

[4] = system: advanced cancer patients; assay: 24 h ECG recording (mean heart rate, SDNN, NSVT) in advanced cancer patients receiving heart failure drugs, case series; assay type: in vivo, human
Procedure: as §1

[5] = system: advanced cancer patients; assay: Hand grip strength, 4 meter walk and 6-minute walk test in advanced cancer patients receiving heart failure drugs, case series; assay type: in vivo, human
Procedure: as §1

[6] = system: patients with advanced cancer; details: cited from earlier work
[7] = system: advanced cancer patients; assay: Survival follow-up of advanced cancer patients receiving heart failure drugs, case series; assay type: in vivo, human
[8] = Case 9: Lung Cancer UICC stage 4, Candesartan 32 mg and Metoprolol 95 mg with co-medication
[9] = Case A: pancreatic cancer metastasized to liver, Gemcitabine, pre-study vs post-study
[10] = Case B: gastrointestinal cancer metastasized to liver, Capecitabine
[11] = Case C: advanced mesothelioma, FOLFIRI
[12] = Case D: head & neck cancer metastasized to lungs, Cetuximab, pre-study vs post-study
[13] = Case 8: Pancreas Cancer UICC stage 4, Nebivolol 7.5 mg with co-medication
[14] = Case 13: Lung cancer UICC stage 4B, Spironolactone 25 mg and Candesartan 32 mg with co-medication
[15] = Case 14: Breast Cancer UICC stage 4, Spironolactone 25 mg with co-medication
[16] = Case 12: Multiple Myeloma stage 3, Spironolactone 25 mg, Candesartan 32 mg and Candesartan 8 mg listed, with co-medication
[17] = Case 6: Colorectal Cancer UICC stage 4, Candesartan 16 mg and Dapagliflozin 10 mg with co-medication
[18] = Case 7: lymphoma Ann Arbor Stage 2A, Empagliflozin 10 mg with co-medication
[19] = Case 10: Lymphoma Ann Arbor stage 4 E, Ramipril 2.5 mg with co-medication
[20] = Case 11: Lymphoma Ann Arbor stage 4 E, Ramipril 10 mg with co-medication

## COCCc1ccc(OCC(O)CNC(C)C)cc1 (stereo not shown) [Metoprolol]
[1]; [8]
  LV mass (echocardiogram): 326 gram
  LVEF (echocardiogram): 67%
[2]; [8]
  Interpretation of the case: protected from heart muscle wasting, life-threatening non-sustained ventricular tachycardia and early death
[3]; [8]
  Self-rated health: 2
[4]; [8]
  Non-sustained ventricular tachycardia (24 h ECG): no non-sustained ventricular tachycardia
[5]; [8]
  Distance walked in 6 minutes: 440 meters
  Hand grip muscle strength: 43 kg

## Ghrelin (GSSFLSPEHQRVQQRKESKKPPAKLQPR; ends and bridges not checked; UniProt Q9UBU3 24-51, looked up) [a gut-derived 28-amino acid peptide hormone]
[6]; [9]
  Change in muscle mass: no change
  Increase in muscle strength: 2%
  Increase in steps/day: 40%
[6]; [10]
  Adverse event: hospitalized for atrial fibrillation, which was an AE deemed unrelated to ghrelin
  Patient comment about using ghrelin: Feel more active
[6]; [11]
  Adverse event: increase in tumor pain, an AE deemed unrelated to ghrelin
  Patient opinion about using ghrelin: This is the first therapy which improves my well-being
  Survival: 62 days
[6]; Case C: advanced mesothelioma, FOLFIRI, pre-study vs post-study
  Decrease in muscle mass: 3%
[6]; [12]
  Change in muscle mass: no change
  Increase in muscle strength: 6%
  Increase in steps/day: 63%

## OC(CNCC(O)C1CCc2cc(F)ccc2O1)C1CCc2cc(F)ccc2O1 (stereo not shown) [Nebivolol]
[1]; [13]
  LV mass (echocardiogram): 236 gram
  LVEF (echocardiogram): 65%
[2]; [13]
  Interpretation of the case: protected from heart muscle wasting, life-threatening non-sustained ventricular tachycardia and early death
[3]; [13]
  Self-rated health: 3
[4]; [13]
  Heart rate variability SDNN (24 h ECG): 124 ms
  Mean heart rate (24 h ECG): 62 beats per minute
  Non-sustained ventricular tachycardia (24 h ECG): no non-sustained ventricular tachycardia
[7]; [13]
  Survival (still alive after): > 337 days
[5]; [13]
  Hand grip muscle strength: 27 kg
  Time to walk 4 meters: 4.6 s

## CC(=O)S[C@@H]1CC2=CC(=O)CC[C@]2(C)[C@H]2CC[C@@]3(C)[C@@H](CC[C@@]34CCC(=O)O4)[C@H]12 [Spironolactone]
[1]; [14]
  LV mass (echocardiogram): 148 gram
  LVEF (echocardiogram): 66%
[1]; [15]
  LV mass (echocardiogram): 233 gram
  LVEF (echocardiogram): 67%
[2]; [14]
  Interpretation of the case: protected from heart muscle wasting, life-threatening non-sustained ventricular tachycardia and early death
[2]; [15]
  Interpretation of the case: protected from heart muscle wasting, life-threatening non-sustained ventricular tachycardia and early death
[3]; [16]
  Symptom status, EQ5D5L Index: 0.887
[4]; [16]
  Heart rate variability SDNN (24 h ECG): 112 ms
  Mean heart rate (24 h ECG): 69 beats per minute
  Non-sustained ventricular tachycardia (24 h ECG): no non-sustained ventricular tachycardia
[4]; [14]
  Heart rate variability SDNN (24 h ECG): 101 ms
  Non-sustained ventricular tachycardia (24 h ECG): no non-sustained ventricular tachycardia
[4]; [15]
  Average heart rate (24 h ECG): 85 bpm
  Heart rate variability SDNN (24 h ECG): 142 ms
  Non-sustained ventricular tachycardia (24 h ECG): no non-sustained ventricular tachycardia
[7]; [15]
  Survival (still alive after): > 235 days
[5]; [16]
  Distance walked in 6 minutes: 527 meters
  Hand grip muscle strength: 47 kg
  Time to walk 4 meters: 2.5 s
[5]; [14]
  Hand grip muscle strength: 40 kg
[5]; [15]
  Hand grip muscle strength: 40 kg

## CCOc1ccc(Cc2cc([C@@H]3O[C@H](CO)[C@@H](O)[C@H](O)[C@H]3O)ccc2Cl)cc1 [Dapagliflozin]
[1]; [17]
  LV mass (echocardiogram): 247 gram
  LVEF (echocardiogram): 68%
[3]; [17]
  Self-rated health: 4
[4]; [17]
  Heart rate variability SDNN (24 h ECG): 160 ms
  Mean heart rate (24 h ECG): 70 beats per minute
[5]; [17]
  Distance in 6-minute walk test: 504 meters
  Hand grip strength: 46 kg

## CCOc1nc2cccc(C(=O)O)c2n1Cc1ccc(-c2ccccc2-c2nnn[nH]2)cc1 [Candesartan]
[1]; [17]
  LV mass (echocardiogram): 247 gram
  LVEF (echocardiogram): 68%
[1]; [8]
  LV mass (echocardiogram): 326 gram
  LVEF (echocardiogram): 67%
[1]; [14]
  LV mass (echocardiogram): 148 gram
  LVEF (echocardiogram): 66%
[3]; [17]
  Self-rated health: 4
[3]; [8]
  Self-rated health: 2
[3]; [16]
  Symptom status, EQ5D5L Index: 0.887
[4]; [17]
  Heart rate variability SDNN (24 h ECG): 160 ms
  Mean heart rate (24 h ECG): 70 beats per minute
[4]; [16]
  Heart rate variability SDNN (24 h ECG): 112 ms
  Mean heart rate (24 h ECG): 69 beats per minute
[4]; [14]
  Heart rate variability SDNN (24 h ECG): 101 ms
[5]; [17]
  Distance in 6-minute walk test: 504 meters
  Hand grip strength: 46 kg
[5]; [8]
  Distance walked in 6 minutes: 440 meters
  Hand grip muscle strength: 43 kg
[5]; [16]
  Distance walked in 6 minutes: 527 meters
  Hand grip muscle strength: 47 kg
  Time to walk 4 meters: 2.5 s
[5]; [14]
  Hand grip muscle strength: 40 kg

## OC[C@H]1O[C@@H](c2ccc(Cl)c(Cc3ccc(O[C@H]4CCOC4)cc3)c2)[C@H](O)[C@@H](O)[C@@H]1O [Empagliflozin]
[1]; [18]
  LV mass (echocardiogram): 365 gram
  LVEF (echocardiogram): 64%
[2]; [18]
  Interpretation of the case: protected from heart muscle wasting, life-threatening non-sustained ventricular tachycardia and early death
[3]; [18]
  Self-rated health: 2
[4]; [18]
  Heart rate variability SDNN (24 h ECG): 224 ms
  Mean heart rate (24 h ECG): 84 beats per minute
  Non-sustained ventricular tachycardia (24 h ECG): no non-sustained ventricular tachycardia
[7]; [18]
  Survival (still alive after): > 324 days
[5]; [18]
  Hand grip strength: 46
  Time to walk 4 meters: 3.5 s

## CCOC(=O)[C@H](CCc1ccccc1)N[C@@H](C)C(=O)N1[C@H](C(=O)O)C[C@@H]2CCC[C@@H]21 [Ramipril]
[1]; [19]
  LV mass (echocardiogram): 189 gram
  LVEF (echocardiogram): 63%
[1]; [20]
  LV mass (echocardiogram): 227 gram
  LVEF (echocardiogram): 67%
[2]; [19]
  Interpretation of the case: protected from heart muscle wasting, life-threatening non-sustained ventricular tachycardia and early death
[2]; [20]
  Interpretation of the case: protected from heart muscle wasting, life-threatening non-sustained ventricular tachycardia and early death
[3]; [19]
  Self-rated health: 3
[3]; [20]
  Symptom status, EQ5D5L Index: 0.999
[4]; [19]
  Heart rate variability SDNN (24 h ECG): 95 ms
  Mean heart rate (24 h ECG): 64 beats per minute
  Non-sustained ventricular tachycardia (24 h ECG): no non-sustained ventricular tachycardia
[4]; [20]
  Heart rate variability SDNN (24 h ECG): 120 ms
  Mean heart rate (24 h ECG): 77 beats per minute
  Non-sustained ventricular tachycardia (24 h ECG): no non-sustained ventricular tachycardia
[7]; [19]
  Survival (still alive after): > 458 days
[7]; [20]
  Survival (still alive after): > 666 days
[5]; [19]
  Distance walked in 6 minutes: 440 meters
  Hand grip muscle strength: 29 kg
  Time to walk 4 meters: 3.5 s
[5]; [20]
  Hand grip muscle strength: 47 kg
